In PubChem BioAssay AID1033 (Sanford-Burnham Center for Chemical Genomics, 2008):
Activity calls are given as the source filed them. The rule behind the calls is not given here.

biological target: Chaperone protein DnaK (Escherichia coli (strain K12)) (UniProt P0A6Y8); experiment: E. coli DnaK SBD ligand binding – biophysical, NMR, chaperone (AID 1033); settings: Purified DnaK SBD
Sequence (P0A6Y8 whole entry, looked up): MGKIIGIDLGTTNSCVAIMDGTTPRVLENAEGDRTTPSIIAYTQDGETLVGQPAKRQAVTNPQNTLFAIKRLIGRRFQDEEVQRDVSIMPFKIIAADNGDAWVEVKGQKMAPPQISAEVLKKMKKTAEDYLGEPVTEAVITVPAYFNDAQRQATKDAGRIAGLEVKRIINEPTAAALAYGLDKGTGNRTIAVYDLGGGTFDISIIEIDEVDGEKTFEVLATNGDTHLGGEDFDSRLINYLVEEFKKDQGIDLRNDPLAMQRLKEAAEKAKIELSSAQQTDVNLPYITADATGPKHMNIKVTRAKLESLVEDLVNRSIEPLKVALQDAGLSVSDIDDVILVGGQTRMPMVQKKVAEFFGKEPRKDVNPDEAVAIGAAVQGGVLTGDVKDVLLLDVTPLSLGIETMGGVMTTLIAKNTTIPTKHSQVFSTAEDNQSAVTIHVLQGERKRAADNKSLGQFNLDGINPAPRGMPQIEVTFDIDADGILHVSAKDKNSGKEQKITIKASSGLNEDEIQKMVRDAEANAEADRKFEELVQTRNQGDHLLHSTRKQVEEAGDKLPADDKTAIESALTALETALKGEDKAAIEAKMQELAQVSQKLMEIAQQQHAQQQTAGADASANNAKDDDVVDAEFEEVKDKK

SMILES	Kd
CC1(C)N([O-])c2cc([N+](=O)[O-])ccc2[N+]1=O	> 4 mM (inactive)
CN(C)S(=O)(=O)c1ccc(NC=O)cc1	> 4 mM (inactive)
Cc1cc(F)c(F)c(C(=O)NC2CC2)c1Cl	> 4 mM (inactive)
S=c1[nH]ncn1-c1ccccc1	> 4 mM (inactive)
Cn1c(=O)[nH]c(=O)c2nsnc21	> 4 mM (inactive)
Cc1sc2nc(SCC(=O)N(C)C)[nH]c(=O)c2c1C	> 4 mM (inactive)
Oc1ccc(-c2n[nH]c(=S)n2Cc2ccco2)cc1	> 4 mM (inactive)
Cc1nnc(NCCCO)[nH]c1=O	> 4 mM (inactive)
CC(=O)Nc1cc(C(F)(F)F)ccc1N1CCOCC1	> 4 mM (inactive)
Cc1cc(NC(=O)Cc2cccs2)no1	> 4 mM (inactive)
CCN1CCN(c2ncnc3c2nnn3C)CC1	> 4 mM (inactive)
COC(=O)c1c(C)cc(OC)cc1O	> 4 mM (inactive)
CCn1cnc2cc([N+](=O)[O-])ccc2c1=O	> 4 mM (inactive)
Cc1c(C(=O)NCc2ccccn2)oc2ccccc12	> 4 mM (inactive)
COc1ccc(S(=O)(=O)N2CCC(C(N)=O)CC2)cc1	> 4 mM (inactive)
COc1c2ccoc2cc2oc(C)cc(=O)c12	> 4 mM (inactive)
CCC(=O)Nc1cccc(NC(C)=O)c1	> 4 mM (inactive)
C/C(O)=c1/sc2cc(C)nc(=N)n2c1=O	> 4 mM (inactive)
NC(=O)c1cc(Cl)c(C(N)=O)cc1Cl	> 4 mM (inactive)
NC(=O)NC1C=CS(=O)(=O)C1 (stereo not given)	> 4 mM (inactive)
Nc1ccccc1C(=O)CC(N)C(=O)O (stereo not given)	> 4 mM (inactive)
O=C(Cc1cccs1)Nc1ccccn1	> 4 mM (inactive)
NC(=O)c1ccc2c(c1)OCO2	> 4 mM (inactive)

SMILES	Kd
CC1(C)CC[C@]2(C(=O)O)CC[C@]3(C)C(=CCC4[C@@]5(C)CC[C@@H](O)C(C)(C)C5CC[C@]43C)C2C1 (stereo not given in full)	> 4 mM (inactive)
CC1=CC(=O)NC2C=CC=CC12 (stereo not given)	> 4 mM (inactive)
C[C@@H]1CC[C@@]2(OC1)O[C@H]1CC3C4CC[C@H]5C[C@@H](O)CC[C@]5(C)C4CC[C@]3(C)[C@H]1[C@@H]2C (stereo not given in full)	> 4 mM (inactive)
COc1cc(OC)c2c(=O)c(-c3ccc4c(c3)OCO4)coc2c1	> 4 mM (inactive)
O=C(O)C1CNc2ccccc2O1 (stereo not given)	> 4 mM (inactive)
O=c1cc(O)nc(SCc2ccccc2)[nH]1	> 4 mM (inactive)
NCCc1cnc[nH]1	> 4 mM (inactive)
NC1=C([N+](=O)[O-])C(=O)c2ccccc21	> 4 mM (inactive)
CSc1ccccc1NC(=O)c1ccoc1C	> 4 mM (inactive)
NCc1ccc2c(c1)CCO2	> 4 mM (inactive)
Cc1cc2nc(SCC(=O)O)nc(C)c2cc1C	> 4 mM (inactive)
O=C(O[C@@H]1Cc2c(O)cc(O)cc2O[C@@H]1c1cc(=O)c(O)c2c(O)c(O)cc([C@H]3Oc4cc(O)cc(O)c4C[C@H]3O)c2c1)c1cc(O)c(O)c(O)c1	> 4 mM (inactive)
Cc1cc2ncc(C(=O)O)c(C)n2n1	> 4 mM (inactive)
Cc1ccc(C(=O)N2CCC(C(N)=O)CC2)cc1C	> 4 mM (inactive)
NC(=O)Cn1cnc2c(cnn2-c2ccccc2)c1=O	> 4 mM (inactive)
CC1(C)CN=C(Nc2nc3ccccc3s2)S1	> 4 mM (inactive)
CC(C)(C)c1cc(N)n[nH]1	> 4 mM (inactive)
CCOC(=O)C1C(=O)C2CCN1CC2 (stereo not given)	> 4 mM (inactive)
O=C(O)c1csc(-c2ccccc2)n1	> 4 mM (inactive)
CC(=O)NC(=S)Nc1ccc(N(C)C(C)=O)cc1	> 4 mM (inactive)
Cc1cccc(-c2nnc(-c3ccc(N)cc3)o2)c1	> 4 mM (inactive)
CC[C@@]1(O)C(=O)OCc2c1cc1n(c2=O)Cc2cc3ccccc3nc2-1	> 4 mM (inactive)
O=C(Nc1nnc(-c2ccccc2Cl)o1)c1ccco1	> 4 mM (inactive)

SMILES	Kd
Cc1ccc2[nH]cc(CCN)c2c1	> 4 mM (inactive)
NC(=O)c1ccsc1NC(=O)c1cccnc1	> 4 mM (inactive)
Nc1cc(C(F)(F)F)ccc1N1CCOCC1	> 4 mM (inactive)
CC1=C2C(O)C(=O)OC3CC4C(C)(C)C(=O)C=C[C@]4(C)C(CC1)[C@]23C (stereo not given in full)	> 4 mM (inactive)
S=C(NCC1CCCO1)NC1CC1 (stereo not given)	> 4 mM (inactive)
CN1CCN(CC(=O)Nc2ccccc2)CC1	> 4 mM (inactive)
C=C1C2CC[C@@]3(C)[C@H](c4ccoc4)OC(=O)C[C@]13O[C@H]1CC(=O)C(C)(C)[C@H](C(OC(C)=O)C(=O)OC)[C@@]21C (stereo not given in full)	> 4 mM (inactive)
COc1cc2c(cc1OC)C(C)NCC2 (stereo not given)	> 4 mM (inactive)
S=c1[nH]nc(-c2cccnc2)n1C1CCCCC1	> 4 mM (inactive)
NC1CSCC1O (stereo not given)	> 4 mM (inactive)
Cc1cc2nc3c(=O)[nH]c(=O)nc-3n(CC(O)C(O)C(O)CO)c2cc1C (stereo not given)	> 4 mM (inactive)
Cc1nnc(NCCO)[nH]c1=O	> 4 mM (inactive)
COc1cc(/C=C2/NC(=S)NC2=O)cc(Cl)c1O	> 4 mM (inactive)
NC(=NCCC[C@H](N)C(=O)O)NC(CCC(=O)O)C(=O)O (stereo not given in full)	> 4 mM (inactive)
Cc1ccccc1N1C(=O)CC(=O)NC1=O	> 4 mM (inactive)
O=C1CSC(c2ccccc2)N1 (stereo not given)	> 4 mM (inactive)
CC1=C2[C@H]3OC(=O)[C@@H](C)[C@@H]3CC[C@@]2(C)C=CC1=O	> 4 mM (inactive)
CC1(C)CC23C(=O)CCC(O)C2(C)CCC13 (stereo not given)	> 4 mM (inactive)
O=C(NCN1CCOCC1)c1cccnc1	> 4 mM (inactive)
O=c1cnnc(N2CCCCC2)[nH]1	> 4 mM (inactive)
Cc1c(CCO)c(=O)n2c([nH]c3ccccc32)c1C#N	> 4 mM (inactive)
O=C(O)c1cc2ccccc2[nH]1	> 4 mM (inactive)
OCc1ccc(N2CCOCC2)cc1	> 4 mM (inactive)

SMILES	Kd
CCCCN1C(=O)C2CC/C(=N/O)CC2C1=O (stereo not given)	> 4 mM (inactive)
O=C(NCc1cccc(Cl)c1)c1ccco1	> 4 mM (inactive)
Cc1occc1C(=O)Nc1ccc(C(N)=O)cc1	> 4 mM (inactive)
O=C(Nc1ccncc1)c1c(F)cccc1F	> 4 mM (inactive)
Cc1nnc(N2CCN(Cc3ccccc3)CC2)[nH]c1=O	> 4 mM (inactive)
Cc1ccc(-c2nc(N)n(C(=O)c3cccnc3)n2)cc1	> 4 mM (inactive)
O=c1c(-c2ccccc2)coc2cc(O)cc(O)c12	> 4 mM (inactive)
Cc1nc2ccc(NC(=O)N3CCOCC3)cc2s1	> 4 mM (inactive)
CC1(C)CC(NC(=O)/C=C/C(=O)O)CC(C)(C)N1	> 4 mM (inactive)
O=C(O)C1CCCN1Cc1c[nH]c2ccccc12 (stereo not given)	> 4 mM (inactive)
NC(=O)CSc1nc2ncnc(N)c2[nH]1	> 4 mM (inactive)
Cc1c(C(=O)Nc2ccncc2)oc2c1C(=O)CC(C)(C)C2	> 4 mM (inactive)
O=c1c2c(nc3nc(COc4ccccc4)[nH]n13)CCC2	> 4 mM (inactive)
O=c1[nH]c2ccccc2c(=O)n1CCCO	> 4 mM (inactive)
NC(=O)c1ccc(NC(=O)C2CC2)cc1	> 4 mM (inactive)
O=C(Nc1ccccc1[N+](=O)[O-])c1ccc(=O)[nH]n1	> 4 mM (inactive)
O=C1C2CC=CCC2C(=O)N1c1ccccc1 (stereo not given)	> 4 mM (inactive)
CCCn1c(S(=O)(=O)O)nc2ccccc21	> 4 mM (inactive)
COc1cc2c(cc1OC)[C@@H]1C(=O)c3ccc4c(c3O[C@@H]1CO2)CC(C(C)C)O4 (stereo not given in full)	> 4 mM (inactive)
Nc1nc(-c2ccccc2)ns1	> 4 mM (inactive)
O=C1C=C(Nc2ccccc2O)c2ccccc2C1=O	> 4 mM (inactive)
CC(C)=CC(=O)Nc1ccccc1C(N)=O	> 4 mM (inactive)
CCOC(=O)c1ccc(F)cc1F	> 4 mM (inactive)

SMILES	Kd
CCCCn1c(=O)cc(O)c2ccccc21	> 4 mM (inactive)
CC(=O)CC1(O)C(=O)Nc2ccc(Br)cc21 (stereo not given)	> 4 mM (inactive)
Oc1cc(O)c2c(c1)O[C@H](c1cc(O)c(O)c(O)c1)[C@H](O)C2	> 4 mM (inactive)
CCN1CC2(C)CC[C@H](OC)[C@]34C2[C@H](O)C2(OCO[C@@]25C[C@H](OC)[C@H]2C[C@]3(O)C5[C@H]2O)C14	> 4 mM (inactive)
Cc1nc(-c2cccc(-c3noc(C)n3)c2)no1	> 4 mM (inactive)
CN(C)c1ccc(NC(=O)CC(C(=O)O)N(C)C)cc1 (stereo not given)	> 4 mM (inactive)
CCc1nnsc1C(=O)Nc1nccs1	> 4 mM (inactive)
Cc1cc2c(nn1)CCc1nonc1-2	> 4 mM (inactive)
O=C1C=C(Nc2ccc(O)cc2)c2ccccc2C1=O	> 4 mM (inactive)
COc1cc2ccc(=O)oc2c(OC)c1OC	> 4 mM (inactive)
Cc1cc(C(=O)Nc2nnc(C(F)(F)F)s2)no1	> 4 mM (inactive)
Oc1cc(O)cc(/C=C/c2ccccc2)c1	> 4 mM (inactive)
OC12CC3CC(CC(C3)C1)C2	> 4 mM (inactive)
O=C(O)C12CC3CC(CC(O)(C3)C1)C2	> 4 mM (inactive)
CC12CCCC(O)(C1)C1CC(C)(C)C1CC2 (stereo not given)	> 4 mM (inactive)
COc1cc(/C=C/C(=O)O)cc(OC)c1OC	> 4 mM (inactive)
CCC(C)C(=O)O[C@H]1[C@H](O)C2C(CN3CC(C)CCC3[C@@]2(C)O)C2C[C@]34O[C@]5(O)C(OC(=O)C(C)(O)C(C)O)CC[C@@]3(C)C5C(OC(C)=O)[C@@H](OC(C)=O)C4[C@@]21O (stereo not given in full)	> 4 mM (inactive)
NC(=O)Cn1nc2c3c(cccc3c1=O)-c1ccccc1-2	> 4 mM (inactive)
COc1ccc(C(=O)O)cc1OC	> 4 mM (inactive)
C[C@H]1OC(O[C@H]2[C@@H](O)CC(O[C@H]3[C@@H](O)C[C@H](O[C@H]4CC[C@]5(C)C6CC[C@]7(C)[C@@H](C8=CC(=O)OC8)[C@@H](O)C[C@]7(O)[C@@H]6CC[C@@H]5C4)O[C@@H]3C)O[C@@H]2C)C[C@H](O)C1O (stereo not given in full)	> 4 mM (inactive)
NC(C(=O)O)C(O)C(=O)O (stereo not given)	> 4 mM (inactive)
CNc1nc(OC)nc(N2CCOCC2)n1	> 4 mM (inactive)
OCc1ccc2c(c1)CCO2	> 4 mM (inactive)
